Several values for one entry are separate records, joined by “and”; a condition that tells them apart may be missing. Identical values can stand only once.
Columns and labels:
Format in all cases: cell-based
[1] = tested on: A. brasilensis (ATCC 16404); experiment: MIC and synergy test (Kull method); conditions: compound or premix acting alone
Experimental: (§1) The cumulative synergistic activity of propylene carbonate, organic compounds/preservative compounds are performed against selected microbial strains.
(§2) Tryptic Soy Broth (TSB) media was used for bacterial evaluations and Yeast Malt Broth (YMB) for fungal evaluations. The compounds were added to the media and serially diluted. After serially diluting the media, 100 μl of a suspension of the testing bacteria or fungi were added to a final concentration of approximately […]. The inoculated media was then incubated at 32° C. for 2-5 days for bacteria or at 28° C. for 3-7 days for fungi.
(§3) The lowest concentration of each compound or mixture or compounds to inhibit visible growth was taken as the minimum inhibitory concentration (MIC). The MIC was taken as end points of activity. End points for the mixture of compound A (Propylene Carbonate) and compound B (organic compounds/conventional preservative) were then compared with the end points for the pure active ingredient alone.
(§4) Synergism was determined by a commonly used and accepted method described by Kull A. C.; Eisman, P. C.; Sylwestrowicz, H. D. and Mayer, R. L. 1961. Applied Microbiology, 9:538-541 using the ratio determine by:
(§5) • QA is the concentration of compound A in PPM, acting alone, which produced an end point. • Qa is the concentration of compound A in PPM, in the mixture, which produced an end point. • QB is the concentration of compound B in PPM, acting alone, which produced an end point. • Qb is the concentration of compound B in PPM, in the mixture, which produced an end point
(§6) When the sum of Qa/QA+Qb/QB is greater than one, antagonism is indicated. When the sum is equal to one, additive is indicated.
(§7) The results comprise following parameters: 1. Test organism (bacteria or fungi), 2. The end-point activity in % measured by MIC for the compound A alone (QA), for compound A in the mixture (Qa), for compound B alone (QB), for compound B in the mixture (Qb), 3. The ratio of Propylene carbonate or combinations of propylene carbonate and an organic compound (compound A) to organic compound (compound B) in that particular combination and the synergy index (SI) based on the formula SI=Qa/QA+Qb/QB.

B. cepacia (ATCC 25416) = experiment: MIC and synergy test (Kull method); conditions: compound or premix acting alone
Experimental: as §1, §2, §3, §4, §5, §6, §7

E. coli (ATCC 8739) = experiment: MIC and synergy test (Kull method); conditions: compound or premix acting alone
Experimental: as §1, §2, §3, §4, §5, §6, §7

S. aureus (ATCC 6538) = experiment: MIC and synergy test (Kull method); conditions: compound or premix acting alone
Experimental: as §1, §2, §3, §4, §5, §6, §7

C. albicans (ATCC 10231) = experiment: MIC and synergy test (Kull method)
Experimental: as §1, §2, §3, §4, §5, §6, §7

[2] = tested on: P. aeruginosa (ATCC 9027); experiment: MIC and synergy test (Kull method); conditions: compound or premix acting alone
Experimental: as §1, §2, §3, §4, §5, §6, §7

bacteria and fungi = experiment: Antimicrobial and antifungal characteristics (MIC), general statement; conditions: alone

## CCC(=O)O [PA, Propionic Acid]
[1]
  MIC of the compound acting alone (QA, QB): 0.078%
B. cepacia (ATCC 25416)
  MIC of the compound acting alone (QA, QB): 0.20%

## Cc1cc(O)ccc1C(C)C [DBL, O-cymen-5-ol]
E. coli (ATCC 8739)
  MIC of the compound acting alone (QA, QB): 0.0625%

## CC1COC(=O)O1 (stereo not shown) [PC, Propylene Carbonate]
S. aureus (ATCC 6538)
  MIC of the compound acting alone (QA, QB): 12.5% and 3.12% and 6.25%
C. albicans (ATCC 10231)
  MIC of the compound acting alone (QA, QB): 6.25%
E. coli (ATCC 8739)
  MIC of the compound acting alone (QA, QB): 3.12% and 1.56% and 6.25%
[2]
  MIC of the compound acting alone (QA, QB): 3.12%
[1]
  MIC of the compound acting alone (QA, QB): 1.56% and 3.12% and 0.78%
B. cepacia (ATCC 25416)
  MIC of the compound acting alone (QA, QB): 3.12% and 1.56%
Bacteria and fungi
  antimicrobial and antifungal characteristics (MIC): no significant antimicrobial and antifungal characteristics

## CCCCCCCCCCC=O [UND, Undecanal]
[1]
  MIC of the compound acting alone (QA, QB): 1.25%

## CCCCCCCC(=O)NO [CHA, Capryl Hydroxamic Acid]
S. aureus (ATCC 6538)
  MIC of the compound acting alone (QA, QB): 0.125%
E. coli (ATCC 8739)
  MIC of the compound acting alone (QA, QB): 0.031%
[1]
  MIC of the compound acting alone (QA, QB): 0.031%

## CCCCCCOCC(O)CO (stereo not shown) [HG, Hexylglycerine]
[1]
  MIC of the compound acting alone (QA, QB): 0.156%

## Alkyl Glucoside [AG6206]
[2]
  MIC of the compound acting alone (QA, QB): 3.12%

## CCCCCCC(O)CO (stereo not shown) [OD, 1,2 octanediol]
S. aureus (ATCC 6538)
  MIC of the compound acting alone (QA, QB): 0.625%
[2]
  MIC of the compound acting alone (QA, QB): 0.625%
[1]
  MIC of the compound acting alone (QA, QB): 0.312%

## CCCCCCCCC(O)CO (stereo not shown) [DD]
S. aureus (ATCC 6538)
  MIC of the compound acting alone (QA, QB): 0.0312% and 0.0156%
E. coli (ATCC 8739)
  MIC of the compound acting alone (QA, QB): 0.0625% and 0.0312%
[2]
  MIC of the compound acting alone (QA, QB): >2.5%
[1]
  MIC of the compound acting alone (QA, QB): 0.0156% and 0.008%
B. cepacia (ATCC 25416)
  MIC of the compound acting alone (QA, QB): 0.0625%

## OCCc1ccccc1 [PhA, Phenethyl Alcohol]
C. albicans (ATCC 10231)
  MIC of the compound acting alone (QA, QB): 0.625%
B. cepacia (ATCC 25416)
  MIC of the compound acting alone (QA, QB): 0.156%

## CC1CCC(C(C)C)C(O)C1 (racemic) [DLM, DL-Menthol]
S. aureus (ATCC 6538)
  MIC of the compound acting alone (QA, QB): 0.69%
E. coli (ATCC 8739)
  MIC of the compound acting alone (QA, QB): 1.39%
B. cepacia (ATCC 25416)
  MIC of the compound acting alone (QA, QB): 0.69%

## CCCCC(O)CO (stereo not shown) [HD, 1,2-hexanediol]
S. aureus (ATCC 6538)
  MIC of the compound acting alone (QA, QB): 2.5%
E. coli (ATCC 8739)
  MIC of the compound acting alone (QA, QB): 1.25%
[2]
  MIC of the compound acting alone (QA, QB): 1.25%
[1]
  MIC of the compound acting alone (QA, QB): 1.25%
B. cepacia (ATCC 25416)
  MIC of the compound acting alone (QA, QB): 0.625%

From US20180092357A1, “SYNERGISTIC PRESERVATIVE COMPOSITIONS” (ISP Investments LLC, priority 2015, published 2018)
